A short description of this series: in vitro. Particulars: rat, gh3-tre-luc cells.

Structures can show the parent of a compound that is named as a salt. A value given as a limit tells only on which side of the number the result lay.

As to `CCCCCOC(=O)CCCCC` [Pentyl hexanoate], for the setting “AC50 (uM) modified / 1000”, the CC50 at 24 h was greater than 90 µM.

In turn, `Oc1ccc(Cc2ccccc2)cc1` [4-Benzylphenol] showed a CC50 at 24 h (AC50 (uM) modified / 1000) of 84.1 µM. On the same count and under the same terms, under `O=P(O)(O)Oc1ccccc1` [Phenyl dihydrogen phosphate] stands greater than 90 µM. On the same count and under the same terms, next, `OCCN(CCO)c1cccc(Cl)c1` [2,2'-(3-Chlorophenylimino)diethanol]: greater than 90 µM; `C=C(C)[C@H]1CC=C(C)C(=O)C1` [d-Carvone]: greater than 90 µM; `CCC[C@@H]1C[C@@H](C(=O)N[C@@H]([C@H]2O[C@H](SC)[C@H](OP(=O)(O)O)[C@@H](O)[C@H]2O)[C@H](C)Cl)N(C)C1` [Clindamycin phosphate]: greater than 50 µM. As to `CC(C)(Cl)[N+](=O)[O-]` [2-Chloro-2-nitropropane], the CC50 at 24 h (AC50 (uM) modified / 1000, Tox21_110001=Tox21_200336, viability, 1 nM T3 present, 24 h) is greater than 90 µM. For `CC(CCO)CCCC(C)(C)O` (stereo not drawn) [3,7-Dimethyloctane-1,7-diol], the CC50 at 24 h (AC50 (uM) modified / 1000) was greater than 90 µM. As to `N#CCCN(CCO)CCO` [3-[Bis(2-hydroxyethyl)amino]propanenitrile], the CC50 at 24 h (AC50 (uM) modified / 1000) is greater than 90 µM. `CCCOCCOCCOCCO` [2-[2-(2-Propoxyethoxy)ethoxy]ethanol] gave a CC50 at 24 h (AC50 (uM) modified / 1000) greater than 90 µM. On the same count and under the same terms, next, `COc1ccc2cc1Oc1ccc(cc1)C[C@H]1c3c(cc4c(c3Oc3cc5c(cc3OC)CCN(C)[C@@H]5C2)OCO4)CCN1C` [Cepharanthine]: 12.3 µM; `CC(C)NC(=O)N1CC(=O)N(c2cc(Cl)cc(Cl)c2)C1=O` [Iprodione]: greater than 90 µM.

On to `CC(=O)OCC(=O)[C@H]1CC[C@H]2[C@@H]3CCC4=CC(=O)CC[C@]4(C)[C@H]3CC[C@]12C` [Deoxycorticosterone acetate], for which the CC50 at 24 h (AC50 (uM) modified / 1000) is greater than 50 µM.

For `Cc1cnc2c(C(=O)O)c(Cl)ccc2c1` [Quinmerac], the CC50 at 24 h (AC50 (uM) modified / 1000) was greater than 90 µM. Same read-out and setting: next, `CCO[Si](CCCN)(OCC)OCC` [3-Aminopropyltriethoxysilane]: greater than 90 µM; `CCCCCCCCCCCCCCCC[N+](C)(C)C` [Hexadecyl trimethyl ammonium chloride]: 12.8 µM. Same read-out and setting: under `CC(=O)Nc1ccc(OC(C)=O)cc1` [Diacetamate] stands greater than 50 µM. Where the note is “AC50 (uM) modified / 1000”, `N[C@@H](Cc1ccc(O)c(O)c1)C(=O)O` [L-Dopa] displayed a CC50 at 24 h greater than 50 µM. As to `CCCCCCCCCOS(=O)(=O)O` [Sulfuric acid, monononyl ester, sodium salt], the CC50 at 24 h (AC50 (uM) modified / 1000) is greater than 90 µM. Same read-out and setting: under `C[C@@]1(c2ccc(Oc3ccccc3)cc2)OC(=O)N(Nc2ccccc2)C1=O` (racemic) [Famoxadone] stands 39 µM; under `O=C1CCC(C2CCCCC2)CC1` [4-Cyclohexylcyclohexanone], greater than 90 µM. `O=C(N[C@@H](c1ccccc1)[C@@H]1CCCCN1)c1cccc(C(F)(F)F)c1Cl` [SSR504734] had a CC50 at 24 h (AC50 (uM) modified / 1000) of 19.9 µM.

Regarding `CCOC(=O)c1ccccc1C(=C1C=C(Br)C(=O)C(Br)=C1)c1cc(Br)c(O)c(Br)c1` [Tetrabromophenolphthalein ethyl ester], the CC50 at 24 h (AC50 (uM) modified / 1000) is 42.7 µM.

As for `C/C=C\C/C=C/CCCCCCCCOC(C)=O` [(9E,12Z)-9,12-Tetradecadien-1-ol acetate], the CC50 at 24 h (AC50 (uM) modified / 1000) is greater than 90 µM. The same measure, in the same setting: next, `CO[C@H]1/C=C/O[C@@]2(C)Oc3c(C)c(O)c4c(O)c(c(/C=N/N5CCN(C6CCCC6)CC5)c(O)c4c3C2=O)NC(=O)/C(C)=C\C=C\[C@H](C)[C@H](O)[C@@H](C)[C@@H](O)[C@@H](C)[C@H](OC(C)=O)[C@@H]1C` [Rifapentine]: 22.8 µM. The same measure, in the same setting: next, `O=C1OCCO1` [1,3-Dioxolan-2-one]: greater than 100 µM; `CC(C)C(C)(C)C(C)(C)C(C)(C)S` [tert-Dodecanethiol]: greater than 90 µM. Where the note is “AC50 (uM) modified / 1000, Tox21_110001=Tox21_111889, viability, 1 nM T3 present, 24 h”, `Cc1c(Cl)c(=O)oc2cc(OP(=O)(OCCCl)OCCCl)ccc12` [Haloxon] gave a CC50 at 24 h greater than 50 µM.

Take `C/C(C=O)=C\c1ccccc1` [2-Methylcinnamic aldehyde]: for the setting “AC50 (uM) modified / 1000”, the CC50 at 24 h is greater than 90 µM. `CS(=O)(=O)c1ccc(Cl)cc1` [4-Chlorophenyl methyl sulfone] registered a CC50 at 24 h (AC50 (uM) modified / 1000) greater than 90 µM.

Consider `C[C@@H]1C[C@H]2[C@@H]3CCC4=CC(=O)C=C[C@]4(C)[C@@]3(F)[C@@H](O)C[C@]2(C)[C@H]1C(=O)CO` [Desoximetasone], for which the CC50 at 24 h (AC50 (uM) modified / 1000) was greater than 50 µM. Still for that read-out and setting: under `Oc1cc(Cl)cc(Cl)c1Cl` [2,3,5-Trichlorophenol] stands greater than 90 µM; under `Cc1cc(C)cc(O)c1` [3,5-Dimethylphenol], greater than 90 µM. With `CN1CCN(C2=Nc3ccccc3Cc3ccccc32)CC1` [Perlapine], the CC50 at 24 h (AC50 (uM) modified / 1000) is 25.9 µM. On to `O=CCCl` [Chloroacetaldehyde], for which the CC50 at 24 h (AC50 (uM) modified / 1000) is greater than 90 µM. As for `CC(C)(C)OC(=O)c1ccc(O)cc1` [tert-Butyl 4-hydroxybenzoate], for the setting “AC50 (uM) modified / 1000”, the CC50 at 24 h was greater than 90 µM. Still for that read-out and setting: under `O=C[C@H](O)[C@@H](O)[C@@H](O)[C@H](O)CO` [Galactose] stands greater than 50 µM; under `O=C(/C=C/c1ccc(O)c(O)c1)O[C@@H](C(=O)O)[C@@H](OC(=O)/C=C/c1ccc(O)c(O)c1)C(=O)O` [L-Cichoric acid], greater than 90 µM; under `CCCCS(=O)(=O)N[C@@H](Cc1ccc(OCCCCC2CCNCC2)cc1)C(=O)O` [Tirofiban hydrochloride monohydrate], greater than 50 µM. Under “AC50 (uM) modified / 1000, Tox21_110001=Tox21_300806, viability, 1 nM T3 present, 24 h”, `CNC(=O)/C=C(\C)OP(=O)(OC)OC` [Monocrotophos] showed a CC50 at 24 h greater than 90 µM. For the compound `Cc1ccc(N)cc1[N+](=O)[O-]` [4-Methyl-3-nitroaniline], the CC50 at 24 h (AC50 (uM) modified / 1000) is greater than 90 µM.

For the compound `C/C=C/C(=O)O` [2-Butenoic acid], the CC50 at 24 h (AC50 (uM) modified / 1000) is greater than 90 µM. Still for that read-out and setting: next, `Clc1cccc(SC2CCNCC2)n1` [Anpirtoline]: greater than 50 µM. On the same count and under the same terms, under `CCOP(=S)(OCC)Oc1cc(C)nc(C(C)C)n1` [Diazinon] stands greater than 90 µM. Still for that read-out and setting: under `CC(=O)SCC(Cc1ccccc1)C(=O)NCC(=O)OCc1ccccc1` (stereo not drawn) [Racecadotril] stands greater than 20 µM. Compound `O=C(O)CCC(=O)OC[C@@H](NC(=O)C(Cl)Cl)[C@H](O)c1ccc([N+](=O)[O-])cc1` [Chloramphenicol sodium succinate] came in with a CC50 at 24 h (AC50 (uM) modified / 1000) greater than 50 µM. `N#CC(Cl)(Cl)Cl` [Trichloroacetonitrile] returned a CC50 at 24 h (AC50 (uM) modified / 1000) greater than 90 µM.

`CN1C[C@@H](NS(=O)(=O)N(C)C)C[C@@H]2c3cccc4c3c(cn4C)C[C@H]21` [Mesulergine] returned a 50% cytotoxic concentration (CC50) at 24 h (AC50 (uM) modified / 1000) of 22.3 µM.

As to `CCCN(CCC)C(=O)CN` [C.I. Solvent Black 5], for the setting “AC50 (uM) modified / 1000”, the midpoint of cytotoxicity, the CC50 at 24 h, lay at 3.55 µM. `C=CCCCC` [1-Hexene] yielded a 50% cytotoxic concentration (CC50) at 24 h (AC50 (uM) modified / 1000) greater than 100 µM. Same read-out and setting: under `CC(C)=C[C@@H]1[C@@H](C(=O)OCc2coc(Cc3ccccc3)c2)C1(C)C` [Bioresmethrin] stands greater than 90 µM; under `CCCCCCCCCCCCOC(=O)c1ccc(O)cc1` [Dodecylparaben], 26 µM.

`Nc1c(Cl)c(F)nc(OCC(=O)O)c1Cl` [Fluroxypyr]: for the setting “AC50 (uM) modified / 1000”, the CC50 at 24 h is greater than 90 µM. On the same count and under the same terms, under `CCc1ccccc1O` [2-Ethylphenol] stands greater than 90 µM; under `C[C@H](N[C@@H](CCc1ccccc1)C(=O)O)C(=O)N1CCC[C@H]1C(=O)O` [Enalapril acid], greater than 50 µM. Still for that read-out and setting: under `CCC(=O)Oc1ccc(/C(CC)=C(\CC)c2ccc(OC(=O)CC)cc2)cc1` [Diethylstilbestrol dipropionate] stands greater than 90 µM; under `O=C(NCCN1CCOCC1)c1ccc(Cl)cc1` [Moclobemide], greater than 50 µM; under `CC(=O)N[C@@H](CCC(N)=O)C(=O)O` [Nalpha-Acetyl-L-glutamine], greater than 50 µM. On the same count and under the same terms, under `CCCN` [Propylammonium nitrate] stands greater than 90 µM; under `CCOc1cccc(C2(N3CCN(c4ccccc4)CC3)CCC(C)CC2)c1` (stereo not drawn) [CP-422935], greater than 90 µM. In the case of `Cc1ccccc1C(=O)O` [2-Methylbenzoic acid], the CC50 at 24 h (AC50 (uM) modified / 1000) is greater than 90 µM.

As for `O=C1CCc2cc(OCCCCc3nnnn3C3CCCCC3)ccc2N1` [Cilostazol], under “AC50 (uM) modified / 1000”, the CC50 at 24 h is greater than 50 µM. Still for that read-out and setting: under `Cc1ccc(C)c(S(=O)(=O)O)c1` [2,5-Dimethylbenzenesulfonic acid] stands greater than 80 µM; under `O=C1NC(=O)[C@H]2[C@@H]1[C@@H]1C=C[C@H]2C1` [Noreximide], greater than 50 µM.

Compound `N#CCC(=O)NN` [Cyacetacide] showed a CC50 at 24 h (AC50 (uM) modified / 1000) greater than 50 µM. Same read-out and setting: under `CCCCCCCCCCCCCCOS(=O)(=O)O` [Sodium myristyl sulfate] stands 32 µM; under `COc1cc(N)c(Cl)cc1C(=O)NC1CN2CCC1CC2` (stereo not drawn) [Zacopride hydrochloride], greater than 50 µM.

`CC(C)OCC1CO1` (stereo not drawn) [Isopropyl glycidyl ether] had a CC50 at 24 h (AC50 (uM) modified / 1000) greater than 90 µM. Compound `CCOC(=O)CC` [Ethyl propionate] came in with a CC50 at 24 h (AC50 (uM) modified / 1000) greater than 90 µM. For the setting “AC50 (uM) modified / 1000”, `Nc1cccc(S(=O)(=O)O)c1` [3-Aminobenzenesulfonic acid] showed a 50% cytotoxic concentration (CC50) at 24 h greater than 90 µM.

For the setting “AC50 (uM) modified / 1000”, `CC(C)C(C)C` [2,3-Dimethylbutane] displayed a CC50 at 24 h greater than 90 µM. Under “AC50 (uM) modified / 1000”, `C[C@@H](O)[C@@H](C)O` [2,3-Butanediol] gave a CC50 at 24 h greater than 100 µM. With `CC(C)(C)OCC1CO1` (stereo not drawn) [tert-Butyl glycidyl ether], the half-maximal cytotoxic concentration (CC50) at 24 h (AC50 (uM) modified / 1000) is greater than 90 µM. Still for that read-out and setting: next, `CN(C)CCC[C@@]1(c2ccc(F)cc2)OCc2cc(C#N)ccc21` [Escitalopram oxalate]: greater than 50 µM; `CCCCCCCCCCCCCCCCCCCl` [Octadecyl chloride]: greater than 5 µM. Same read-out and setting: next, `CCC(=O)c1ccc2c(c1)N(CCCN(C)C)c1ccccc1S2` [Propionylpromazine hydrochloride]: 6.21 µM; `C[C@H](O)C(=O)Nc1c(I)c(C(=O)NC(CO)CO)c(I)c(C(=O)NC(CO)CO)c1I` [Iopamidol]: greater than 20 µM. As to `CCCCCCCCCCCCCCCl` [1-Chlorotetradecane], under “AC50 (uM) modified / 1000, Tox21_110001=Tox21_200456, viability, 1 nM T3 present, 24 h”, the CC50 at 24 h is greater than 90 µM.

The CC50 is the concentration that lowers cell viability or growth by half. Higher therefore signals better tolerance by the cells.

Source of the values: publication PMC6792352, “Limited Chemical Structural Diversity Found to Modulate Thyroid Hormone Receptor in the Tox21 Chemical Library” (Environmental Health Perspectives, 2019).
